Earlier results as cited in patent publication US20260076921A1, “Transdermal Pharmaceutical Formulations for the Treatment of Multiple Sclerosis” (Pike Therapeutics Inc., priority 2020, published 2026).
pKi: −log10 of the molar value. Values joined by “and” are separate entries in the source; they are usually repeats but may differ in a detail not shown here. Identical values can stand only once.

Assays:
[1] = literature ranges
[2] = 6.2 mg/day dose
[3] = target: CB1

Compound	Oral bioavailability [1]	effect on knee-joint swelling [2]	pKi [3]
C=C(C)[C@@H]1CCC(C)=C[C@H]1c1c(O)cc(CCCCC)cc1O [CBD, 2-[(1R,6R)-6-isopropenyl-3-methylcyclohex-2-en-1-yl]-5-pentylbenzene-1,3-diol]	13-19% and 5-6%	very effective to reduce knee-joint swelling	
CCCCCn1cc(C(=O)c2ccc(Cl)c3ccccc23)c2ccccc21 [JWH-398]			8.64
CCCCCn1cc(C(=O)c2cccc3cccc(Br)c23)c2ccccc21 [JWH-424]			7.68
CCCCC/C=C\C/C=C\C/C=C\C/C=C\CCCC(=O)N[C@H](C)CO [Methanandamide]			7.75
